Laboratory results: patent US20020037327A1, “Treatment for cancer and compounds for use therein” (priority 1997, published 2002)
Read-outs that look alike come from different tables or passages of the source. Each block holds one substance with its values, some of them ahead of it.

Key:
[1] = Water solubility of the prepared compound; assay type: physicochemical
Description: Bismuth iodiscorbate was prepared by dissolving 58 g of concentrated hydriodic acid (56.1 weight-percent) into 350 mls of water. Next, 5 g of 0.0085 molar bismuth (III) iodide was crushed in a mortar, and then dissolved in the solution. Next, 2.3 g of 0.0085 molar strontium hydroxide octahydrate was stirred into the solution, followed by the addition of 4.5 g of 0.026 molar L-ascorbic acid. The mixture was stirred for three hours, then stripped to dryness on a rotary evaporator. The residue then was redissolved in 500 ml water and filtered, and again stripped on a rotary evaporator. This process assisted in the removal of excess hydriodic acid. The residue again was dissolved in 500 ml of water, filtered, and stripped to dryness on a rotary evaporator. An orange solid then was removed from the flask and bottled. This procedure yielded 9.1 g of what is designated as SrBiI2[ascorbate]3. This compound was water soluble.
Potassium iodiscorbate was prepared by adding 6.5 g of 0.12 molar potassium hydroxide and 16.0 g of 0.06 molar strontium hydroxide octahydrate to 500 ml water in a 1000-ml beaker, resulting in a white, cloudy solution. The mixture was stirred for about 2 hours. Next, 13.0 g of 0.06 molar hydriodic acid (56 weight-percent) was added, and the mixture was stirred for three hours. Next, […] of 0.18 molar L-ascorbic acid was added, turning the mixture clear in about 5 minutes. The mixture then was stirred for another 0.5 hour. The water was removed under vacuo, and the residue dried under vacuum for about 8 hours. The solids were removed from the flask and bottles. The structure is designated as [ascorbate]2SrK[ascorbate]KI. This compound also was water soluble.
Zinc iodiscorbate was prepared by adding 4.0 g of 0.05 molar zinc oxide and 13.3 g of 0.05 molar strontium hydroxide octahydrate to 500 ml of distilled water, resulting in a white suspension. The mixture then was treated with 11.2 g of 0.05 molar concentrated hydriodic acid and stirred for two hours. A white suspension still remained. […]

[2] = tested on: MCF-7 breast carcinoma cells; assay: In vitro percent cell survival, crystal violet assay, breast carcinoma cells; assay type: cell-based, human; details: 48 hours
Description: (§1) Three compounds of the present invention, specifically, bismuth iodiscorbate, potassium iodiscorbate, and zinc iodiscorbate, were tested in vitro on both tumorous and normal human cells. Three cell lines were obtained through the American Type Culture Collection (Rockville, Maryland). The first cell line, designated HUV-EC-C, consisted of human umbilical cord vein normal endothelial cells. These noncancerous cells were used as a control. The second cell line, MCF-7, consisted of breast carcinoma cells. The third cell line, ME-180, consisted of uterine cervix carcinoma cells.
(§2) The data shown in FIGS. 5-7 were derived by the following steps. HUV-EC-C was cultured in a solution of 90% F12 medium (GIBCO-BRL, Grand Island, N.Y.) and 10% fetal bovine serum (Hyclone, Logan, Utah) with 100 μg/ml heparin and 30 μg/ml ECGF (endothelial cell growth factor; Sigma Chemical Co., St. Louis, Mo.). MCF-7 and ME-180 were grown in a solution of 90% minimal essential medium (GIBCO-BRL) and 10% fetal bovine serum (Hyclone). The cells were grown to approximately 90% confluence in T25 cell culture flasks (Falcon-Becton Dickinson Labware, Franklin Lakes, N.J.) in a 37° C. humidified incubator in the presence of 5% C02−95% air.
(§3) Flasks were removed from the incubator and placed in a sterile laminar flow hood. All cell manipulation procedures were performed in this sterile hood. The flasks were rinsed in 5 ml of sterile phosphate-buffered saline (PBS; Sigma) and the monolayer of cells was released from the flask by adding 5 ml of 1X trypsin-EDTA (Sigma) in PBS. The flask was capped and placed back in the incubator for 10 minutes. The flasks were removed from the incubator, and cells plus trypsin-EDTA solution were transferred to a 15 ml centrifuge tube (Falcon) and 5 ml of cell growth medium was added. The tubes were centrifuged at 500 g for 10 minutes at room temperature. The tubes then were placed back in the hood and supernatant (top liquid) was removed with a sterile pipette (Falcon). […] The cell density in the hemacytometer was determined by counting cells visible by microscopy. […]

[3] = tested on: ME-180 uterine cervix carcinoma cells; assay: In vitro percent cell survival, crystal violet assay, uterine cervix carcinoma cells; assay type: cell-based, human; details: 48 hours; for survival of human cervical carcinoma cells (ME-180): concentration not given
Description: as §1, §2, §3

[4] = tested on: HUV-EC-C human umbilical cord vein normal endothelial cells; assay: In vitro percent cell survival, crystal violet assay, normal endothelial cells (control); assay type: cell-based; details: 48 hours
Description: as §1, §2
Flasks were removed from the incubator and placed in a sterile laminar flow hood. […] The cell density in the hemacytometer was determined by counting cells visible by microscopy. […]

[5] = tested on: cells at high density (near confluence in culture dishes); assay: Treatment of cells at high density (near confluence); assay type: cell-based, human; details: 400 μg/ml
Description: FIG. 5 depicts percent cell survival against various concentrations of potassium iodiscorbate.

mice = assay: In vivo toxicology study in mice
Description: A toxicology study also was performed. Specifically, the toxicology of potassium iodiscorbate was evaluated through in vivo tests on mice. Potassium iodiscorbate was prepared as a stock solution of 175 mg/ml in saline and administered to mice. Injections consisted of a volume not exceeding 0.1 ml administered through the tail vein (intravenously), or a volume not exceeding 0.2 ml (by an intraperitoneal route). Doses up to 1000 mg/kg (intraperitoneal injection) and 500 mg/kg (intravenous injection) caused no apparent toxicity. This dose should permit use of the compounds of the present invention in concentrations (refer to FIGS. 5-7) that approximate those necessary for selective inhibition of malignant cell growth.

- solubility in water [1]: water soluble
Substance: Bismuth iodiscorbate
- survival of human breast cancer cells (MCF-7) ([2]; concentration not given): effective in reducing the survival
- survival of human cervical carcinoma cells (ME-180) [3]: effective in reducing the survival

Substance: Potassium iodiscorbate
- solubility in water ([1]; product as prepared): water soluble
- survival of breast carcinoma cells (MCF-7) ([2]; concentrations greater than 100 μg/ml): reducing dramatically the survival
- survival of human cervical carcinoma cells (ME-180) [3]: reduced dramatically the survival
- growth of normal human endothelial cells (HUV-EC-C) ([4]; any concentration tested): did not affect the growth
- effect on cells at high density [5]: little effect
- doses that caused no apparent toxicity (mice; intraperitoneal injection): up to 1000 mg/kg
- doses that caused no apparent toxicity (mice; intravenous injection (tail vein)): ≤ 500 mg/kg

Substance: Zinc iodiscorbate
- solubility in water ([1]; product as prepared): water soluble
- survival of breast carcinoma cells (MCF-7) with respect to normal cell growth ([2]; about 80-100 μg/ml): reduced dramatically
- survival of cervical carcinoma cells (ME-180) with respect to normal cell growth ([3]; about 80-100 μg/ml): reduced dramatically
- normal cell growth (HUV-EC-C) ([4]; about 80-100 μg/ml): without serious reduction of normal cell growth
